This is an account of results in patent publication US12697411B2, “In-situ film-forming composition” (priority 2021, dated 2026).

This data set can be described thus: Stability of the disinfectant (LAE) in contact with the polyamide lacquer, LC-MS of the film. Type of data set: physicochemical. As to conditions: Spray 1 (composition of Example 1) in polyamide-lacquered container, 3 months at 50° C.; LAE measured in film. On the procedure: Besides, the stability of the disinfectant (LAE) present in the composition of Example 1 of the present invention in contact with the polyamide lacquer of the container was measured. Full containers loaded with Spray 1 of the present invention were controlled at 50° C. for 3 months, at 40° C. form 4 to 9 months, and at 30° C. from 6 to 18 months. After that time, the composition was applied to a surface to form the adherent film, in which the amount of LAE was calculated (mg of LAE/g of film).
The method for calculating the amount of LAE consists of a liquid chromatography-mass spectrometry (LC-MS) analysis of the tested sample previously sprayed into a container (glass flask) and dried into a rotary evaporator. The exact and constant weight of the residue is determined. This residue is dissolved in Acetonitrile and doped with a known volume solution of a solution f the internal pattern (Dodine, commercially available) in a known concentration. Then it is stirred and then, pure water at pH 3-4 (acidified with HCl) is added still flushing, this allows precipitating the polymer. The supernatant is filtered and punctured by LC-MS.
• Detector: ACQ-QDa mass Detector • Column: Kromasil 100-5-C18 150×4.0 mm. (5 μm, 100 Å) • System design: Mobil phase entrance-Column-PDA entrance-QDa entrance-Waste Exit
• Fluxe: 1.00 mL/min. […]

For `CCCCCCCCCCCC(=O)N[C@@H](CCCN=C(N)N)C(=O)OCC.Cl` [LAE, Ethyl lauroyl arginate hydrochloride salt], the “reduction of the amount of disinfectant (LAE)” value is given as “about 11%”.
